Experimental data reported in ChEMBL document CHEMBL2424578, “Synergistic effects of berberines with antibiotics on clinical multi-drug resistant isolates of methicillin-resistant Staphylococcus aureus (MRSA)” (2013).
≈ marks a conversion by molar mass, not a printed value.

Experiments:
Assay type in all cases: functional
Staphylococcus aureus [1] = test: Antibacterial activity against SCCmec type 3 genotype-positive and methicillin-resistant Staphylococcus aureus clinical isolates after 24 hrs by broth microdilution method
Staphylococcus aureus [2] = test: Antibacterial activity against SCCmec type 3 genotype-positive and methicillin-resistant Staphylococcus aureus clinical isolates after 24 hrs by chequerboard method in presence of cefazolin
Staphylococcus aureus [3] = test: Antibacterial activity against SCCmec type 3 genotype-positive and methicillin-resistant Staphylococcus aureus clinical isolates after 24 hrs by chequerboard method in presence of levofloxacin
Staphylococcus aureus [4] = test: Antibacterial activity against SCCmec type 3 genotype-positive and methicillin-resistant Staphylococcus aureus clinical isolates after 24 hrs by chequerboard method in presence of azithromycin
Staphylococcus aureus [5] = test: Antibacterial activity against SCCmec type 3 genotype-positive and methicillin-resistant Staphylococcus aureus clinical isolates after 24 hrs by chequerboard method in presence of ampicillin

In the case of `CC1(C)S[C@@H]2[C@H](NC(=O)[C@H](N)c3ccccc3)C(=O)N2[C@H]1C(=O)O` [AMPICILLIN], the MBC (Staphylococcus aureus [1]) is reported as 64 µg/mL (≈ 183 µM).

With `COc1ccc2cc3[n+](cc2c1OC)CCc1cc2c(cc1-3)OCO2.[Cl-]` [BERBERINE CHLORIDE] the FICI50 (Staphylococcus aureus [2]) was 2, the FICI90 (Staphylococcus aureus [2]) was 2 and the “fractional inhibitory concentration index (FICI)” value (Staphylococcus aureus [2]) was 1.5. The FICI50 (Staphylococcus aureus [3]) was 0.5, the FICI90 (Staphylococcus aureus [3]) was 0.75 and the “fractional inhibitory concentration index (FICI)” value (Staphylococcus aureus [3]) was 0.375. The FICI50 (Staphylococcus aureus [4]) was 0.313, the FICI90 (Staphylococcus aureus [4]) was 0.5 and the “fractional inhibitory concentration index (FICI)” value (Staphylococcus aureus [4]) was 0.25. For the same compound, the MBC (Staphylococcus aureus [1]) was 64 µg/mL, the MIC (Staphylococcus aureus [1]) was 32 µg/mL and the FICI50 (Staphylococcus aureus [5]) was 2. The FICI90 (Staphylococcus aureus [5]) was 2 and the “fractional inhibitory concentration index (FICI)” value (Staphylococcus aureus [5]) was 1.5.

Work on `CC[C@H]1OC(=O)[C@H](C)[C@@H](O[C@H]2C[C@@](C)(OC)[C@@H](O)[C@H](C)O2)[C@H](C)[C@@H](O[C@@H]2O[C@H](C)C[C@H](N(C)C)[C@H]2O)[C@](C)(O)C[C@@H](C)CN(C)[C@H](C)[C@@H](O)[C@]1(C)O` [AZITHROMYCIN] yielded an MIC (Staphylococcus aureus [1]) of 2000 µg/mL (≈ 2670 µM).

In the case of `COS(=O)(=O)[O-].COc1ccc2c(c1OC)C[N+]1(C)CCc3cc4c(cc3C1=C2)OCO4` (stereo not drawn), the FICI50 (Staphylococcus aureus [2]) is reported as 2, the FICI90 (Staphylococcus aureus [2]) is reported as 2 and the “fractional inhibitory concentration index (FICI)” value (Staphylococcus aureus [2]) is reported as 1.5. The FICI50 (Staphylococcus aureus [3]) was 0.375, the FICI90 (Staphylococcus aureus [3]) was 0.5 and the “fractional inhibitory concentration index (FICI)” value (Staphylococcus aureus [3]) was 0.25. For the same compound, the FICI50 (Staphylococcus aureus [4]) was 0.375, the FICI90 (Staphylococcus aureus [4]) was 0.5 and the “fractional inhibitory concentration index (FICI)” value (Staphylococcus aureus [4]) was 0.188. It also gave an MBC (Staphylococcus aureus [1]) of 256 µg/mL, an MIC (Staphylococcus aureus [1]) of 64 µg/mL and an FICI50 (Staphylococcus aureus [5]) of 2. The FICI90 (Staphylococcus aureus [5]) was 2 and the “fractional inhibitory concentration index (FICI)” value (Staphylococcus aureus [5]) was 1.5.

`CN[C@H](CC(C)C)C(=O)N[C@H]1C(=O)N[C@@H](CC(N)=O)C(=O)N[C@H]2C(=O)N[C@H]3C(=O)N[C@H](C(=O)N[C@H](C(=O)O)c4cc(O)cc(O)c4-c4cc3ccc4O)[C@H](O)c3ccc(c(Cl)c3)Oc3cc2cc(c3O[C@@H]2O[C@H](CO)[C@@H](O)[C@H](O)[C@H]2O[C@H]2C[C@](C)(N)[C@H](O)[C@H](C)O2)Oc2ccc(cc2Cl)[C@H]1O` [VANCOMYCIN] was tested, and the MBC (Staphylococcus aureus [1]) was 2 µg/mL (≈ 1.38 µM).

`C[C@H]1COc2c(N3CCN(C)CC3)c(F)cc3c(=O)c(C(=O)O)cn1c23.C[C@H]1COc2c(N3CCN(C)CC3)c(F)cc3c(=O)c(C(=O)O)cn1c23.O` [LEVOFLOXACIN] gave an MBC (Staphylococcus aureus [1]) of 8 µg/mL and an MIC (Staphylococcus aureus [1]) of 2 µg/mL.
